Experimental data reported in publication PMC6934184, “Selective DNA-PKcs inhibition extends the therapeutic index of localized radiotherapy and chemotherapy” (The Journal of Clinical Investigation, 2019).

Target: T1, CDK9/cyclin T1 (Homo sapiens, UniProt P50750)
T1 construct: purchased Thermo Fisher Scientific (Life Technologies) SelectScreen
Experiment: SelectScreen Adapta
Assay type: biochemical
Procedure, shortened: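 Compound tested in SelectScreen activity assays, Z'LYTE for CSF1R, CDK1/cyclin B and MAP2K6 and Adapta for CAMK1. ATP for CAMK1 was listed as 10, and Km app was used for CSF1R. Results are expressed in percent.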

T1 sequence (P50750 whole entry): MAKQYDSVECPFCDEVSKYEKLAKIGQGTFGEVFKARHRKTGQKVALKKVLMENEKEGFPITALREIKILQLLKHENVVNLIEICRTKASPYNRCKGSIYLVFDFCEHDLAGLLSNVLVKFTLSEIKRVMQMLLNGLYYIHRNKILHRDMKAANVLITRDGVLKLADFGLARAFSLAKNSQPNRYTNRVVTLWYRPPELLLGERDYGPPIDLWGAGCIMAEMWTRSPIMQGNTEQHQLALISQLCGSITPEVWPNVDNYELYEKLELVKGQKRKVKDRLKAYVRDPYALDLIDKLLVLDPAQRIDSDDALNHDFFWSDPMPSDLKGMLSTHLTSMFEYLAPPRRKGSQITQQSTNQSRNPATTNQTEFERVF
T1 sequence (O60563 whole entry partner): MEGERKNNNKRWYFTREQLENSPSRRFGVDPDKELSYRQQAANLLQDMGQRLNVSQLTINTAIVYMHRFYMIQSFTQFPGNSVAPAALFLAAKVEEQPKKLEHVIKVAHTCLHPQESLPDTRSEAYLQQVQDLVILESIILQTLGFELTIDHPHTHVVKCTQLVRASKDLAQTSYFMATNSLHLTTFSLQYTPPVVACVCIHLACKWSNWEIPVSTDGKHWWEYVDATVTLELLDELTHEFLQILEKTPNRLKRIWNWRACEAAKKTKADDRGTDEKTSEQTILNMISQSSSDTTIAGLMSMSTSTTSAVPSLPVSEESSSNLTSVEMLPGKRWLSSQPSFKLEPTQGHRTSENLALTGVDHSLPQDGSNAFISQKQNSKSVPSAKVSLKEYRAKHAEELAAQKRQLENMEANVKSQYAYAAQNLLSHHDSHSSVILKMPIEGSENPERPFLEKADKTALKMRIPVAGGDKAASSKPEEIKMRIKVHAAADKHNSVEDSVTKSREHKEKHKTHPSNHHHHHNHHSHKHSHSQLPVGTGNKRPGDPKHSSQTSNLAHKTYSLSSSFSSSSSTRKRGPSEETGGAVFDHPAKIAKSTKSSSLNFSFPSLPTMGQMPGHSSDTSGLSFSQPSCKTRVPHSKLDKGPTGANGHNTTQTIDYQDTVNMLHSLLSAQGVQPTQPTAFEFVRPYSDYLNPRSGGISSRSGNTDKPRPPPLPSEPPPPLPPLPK

Structure (SMILES): CN(C(=O)CN1CCOCC1)c1ccc2sc3c(-c4cccc5c(=O)cc(N6CC7CCC(C6)O7)oc45)cccc3c2c1 [NU5455]
- inhibition at 1 µM: -1.4%
